Read-outs that look alike come from different tables or passages of the source.
Columns and labels:
HRV-14 = assay: Antirhinoviral H1-HeLa cell culture assay, HRV-14; format: cell-based, human rhinovirus; conditions: Rhinovirus B, HRV14, H1-HeLa, HRV serotype-14, H1-HeLa cells
Method: (§1) In this cell protection assay, the ability of compounds to protect cells against HRV infection was measured by the XTT dye reduction method, which is described in Weislow et al., J. Natl. Cancer Inst. 1989, vol. 81, 577-586.
(§2) H1-HeLa cells were infected with HRV-14 at a multiplicity of infection (m.o.i.) of 0.13 (virus particles/cell) or mock-infected with medium only. Infected or mock-infected cells were resuspended at 8×10^5 cells per mL, and incubated with appropriate concentrations of the compounds to be tested. Two days later, XTT/PMS was added to test plates and the amount of formazan produced was quantified spectrophotometrically at 450/650 nm. The EC50 value was calculated as the concentration of compound that increased the percentage of formazan production in compound-treated, virus-infected cells to 50% of that produced by compound-free, mock-infected cells. The 50% cytotoxic dose (CC50) was calculated as the concentration of compound that decreased the percentage of formazan produced in compound-treated, mock-infected cells to 50% of that produced by compound-free, mock-infected cells. The therapeutic index (TI) was calculated by dividing the CC50 value by the EC50 value.
(§3) All strains of human rhinovirus (HRV) for use in this assay were purchased from American Type Culture Collection (ATCC), except for HRV serotype-14 (produced from the infectious cDNA clone constructed by Dr. Robert Rueckert, Institute for Molecular Virology, University of Wisconsin, Madison, Wis.). HRV stocks were propagated and viral assays were performed in H1-HeLa cells (ATCC). Cells were grown in minimal essential medium with 10% fetal bovine serum, available from Life Technologies (Gaithersburg, Md.).
(§4) The compounds were tested against control compounds WIN 51711, WIN 52084, and WIN 54954 (obtained from Sterling-Winthrop Pharmaceuticals), Pirodavir (obtained from Janssen Pharmaceuticals), and Pleconaril (prepared according to the method described in Diana et al., J. Med. Chem 1995, vol. 38, 1355). Antiviral data obtained for the test compounds are shown in Tables 1 and 3, where all data are for HRV serotype-14 unless otherwise noted in parentheses.

[1] = tested on: Coxsackievirus type A-21 (CAV-21); assay: Anticoxsackieviral cell culture assay, CAV-21; format: cell-based; conditions: H1-HeLa, 48 h
Method: (§5) Coxsackievirus types A-21 (CAV-21) and B3 (CVB-3) were purchased from American Type Culture Collection (ATCC, Rockville, Md.). Virus stocks were propagated and antiviral assays were performed in H1-HeLa cells (ATCC). Cells were grown in minimal essential medium with 10% fetal bovine serum (Life Technologies, Gaithersburg, Md.).
(§6) The ability of compounds to protect cells against either CAV-21 or CVB-3 infection was measured by the XTT dye reduction method. This method is described in Weislow et al., J. Natl. Cancer Inst. 1989, vol. 81, 577-586. H1-HeLa cells were infected with CAV-21 or CVB-3 at a multiplicity of infection (m.o.i.) of 0.025 or 0.075, respectively, or mock-infected with medium only. H1-HeLa cells were plated at 4×10^4 cells per well in a 96-well plate and incubated with appropriate concentrations of the test compound. One day (CVB-3) or two days (CAV-21) later, XTT/PMS was added to test plates and the amount of formazan produced was quantified spectrophotometrically at 450/650 nm. The EC50 was calculated as the concentration of compound that increased the formazan production in compound-treated, virus-infected cells to 50% of that produced by compound-free, uninfected cells. The 50% cytotoxic dose (CC50) was calculated as the concentration of compound that decreased formazan production in compound-treated, uninfected cells to 50% of that produced in compound-free, uninfected cells. The therapeutic index TI) was calculated by dividing the CC50 by the EC50.
(§7) The compounds were tested against control compounds WIN 54954 (obtained from Sterling-Winthrop Pharmaceuticals), Pirodavir (obtained from Janssen Pharmaceuticals), and Pleconaril (prepared according to Diana et al., J. Med. Chem. 1995, 38, 1355).

[2] = tested on: Coxsackievirus type B3 (CVB-3); assay: Anticoxsackieviral cell culture assay, CVB-3; format: cell-based; conditions: H1-HeLa, 24 h
Method: as §5, §6, §7

[3] = tested on: Echovirus type 11 (EV 11); assay: Anti-echoviral cell culture assay, EV 11; format: cell-based; conditions: Enterovirus B, MRC5, 96 h
Method: Echovirus type 11 (EV 11) and enterovirus type 70 (EV 70) were purchased from ATCC (Rockville, Md.). Virus stocks were propagated and antiviral assays were performed in MRC-5 cells (ATCC). Cells were grown in minimal essential medium with 10% fetal bovine serum (Life Technologies, Gaithersburg, Md.).
The ability of compounds to protect cells against either EV 11 or EV 70 infection was measured by the XTT dye reduction method (Weislow et al., J. Natl. Cancer Inst. 1989, vol. 81, 577-586). MRC-5 cells were infected with EV 11 or EV 70 at an m.o.i. of 0.003 or 0.004, respectively, or mock-infected with medium only. Infected or uninfected cells were added at 1×10^4 cells per well and incubated with appropriate concentrations of compound. Four days later, XTT/PMS was added to test plates, and the amount of formazan produced was quantified spectrophotometrically at 450/650 nm. The EC50 was calculated as the concentration of compound that increased the formazan production in compound-treated, virus-infected cells to 50% of that produced by compound-free, uninfected cells. The 50% cytotoxic dose (CC50) was calculated as the concentration of compound that decreased formazan production in compound-treated, uninfected cells to 50% of that produced in compound-free, uninfected cells. The therapeutic index (TI) was calculated by dividing the CC50 by the EC50.
The compounds were tested against control compounds Pirodavir (obtained from Janssen Pharmaceuticals) and Pleconaril (prepared according to Diana et al., J. Med. Chem. 1995, vol. 38, 1355). Antiviral data obtained for the test compounds against strain EV 11 and EV 70 are shown below in Table 5.

[4] = biological target: T1, rhinovirus 3C protease from HRV serotype-14 (Human rhinovirus 14, UniProt P03303); assay: Inhibition of rhinovirus 3C protease (FRET assay), serotype 14; format: biochemical; conditions: HRV serotype-14 3C protease; progress curves in enzyme start experiments; read-out: Protease Inhibition kobs/[I]
T1 construct: Recombinant rhinovirus 3C proteases; made in house
Method: (§8) Stock solutions (50 mM, in DMSO) of various compounds were prepared; dilutions were in the same solvent. Recombinant rhinovirus 3C proteases (see Birch et al., “Purification of recombinant human rhinovirus 14 3C protease expressed in Escherichia coli,” Protein Expr. Pur. 1995, 6(5), 609-618) from serotypes 14, 16, and 2 were prepared by the following standard chromatographic procedures: (1) ion exchange using Q Sepharose Fast Flow from Pharmacia; (2) affinity chromatography using Affi-Gel Blue from Biorad; and (3) sizing using Sephadex G-100 from Pharmacia. Each assay sample contained 2% DMSO, 50 mM tris pH 7.6, 1 mM EDTA, a test compound at the indicated concentration, approximately 1 μM substrate, and 50-100 nM protease. The kobs/I values were obtained from reactions initiated by addition of enzyme rather than substrate. RVP activity was measured in the fluorescence resonance energy transfer assay. The substrate was (N-terminal) DABCYL-(Gly-Arg-Ala-Val-Phe-Gln-Gly-Pro-Val-Gly)-EDANS. In the uncleaved peptide, the EDANS fluorescence was quenched by the proximal DABCYL moiety. When the peptide was cleaved, the quenching was relieved, and activity was measured as an increase in fluorescence signal. In Table 1, all data are for rhinovirus 3C protease from HRV serotype-14 (produced from the infectious cDNA clone constructed by Dr. Robert Rueckert, Institute for Molecular Virology, University of Wisconsin, Madison, Wis.). […] The data in the column designated kobs/[I] were measured from progress curves in enzyme start experiments.

HRV (1A) = assay: Antirhinoviral H1-HeLa cell culture assay, HRV serotype 1A; format: cell-based; conditions: Human rhinovirus sp., H1-HeLa cells, XTT
Method: as §1, §2, §3, §4

HRV (10) = assay: Antirhinoviral H1-HeLa cell culture assay, HRV serotype 10; format: cell-based, human rhinovirus; conditions: H1-HeLa cells, XTT
Method: as §1, §2, §3, §4

[5] = Cytotoxicity in mock-infected H1-HeLa cells (antirhinoviral assay, XTT); format: cell-based; conditions: human, 50% cytotoxic dose, two days
Method: as §2, §3

HRV (2) = assay: Antirhinoviral H1-HeLa cell culture assay, HRV serotype 2; format: cell-based, human rhinovirus; conditions: H1-HeLa cells, XTT
Method: as §1, §2, §3, §4

HRV (89) = assay: Antirhinoviral H1-HeLa cell culture assay, HRV serotype 89; format: cell-based, human rhinovirus; conditions: H1-HeLa cells, XTT
Method: as §1, §2, §3, §4

HRV (39) = assay: Antirhinoviral H1-HeLa cell culture assay, HRV serotype 39; format: cell-based, human rhinovirus; conditions: H1-HeLa cells, XTT
Method: as §1, §2, §3
(§9) The compounds were tested against control compounds WIN 51711, WIN 52084, and WIN 54954 (obtained from Sterling-Winthrop Pharmaceuticals), Pirodavir (obtained from Janssen Pharmaceuticals), and Pleconaril (prepared according to the method described in Diana et al., J. Med. Chem 1995, vol. 38, 1355). […]

HRV (3) = assay: Antirhinoviral H1-HeLa cell culture assay, HRV serotype 3; format: cell-based, human rhinovirus; conditions: H1-HeLa cells, XTT
Method: as §1, §2, §3, §9

HRV (9) = assay: Antirhinoviral H1-HeLa cell culture assay, HRV serotype 9; format: cell-based, human rhinovirus; conditions: H1-HeLa cells, XTT
Method: as §1, §2, §3, §9

HRV (13) = assay: Antirhinoviral H1-HeLa cell culture assay, HRV serotype 13; format: cell-based, human rhinovirus; conditions: H1-HeLa cells, XTT
Method: as §1, §2, §3, §9

HRV (17) = assay: Antirhinoviral H1-HeLa cell culture assay, HRV serotype 17; format: cell-based, human rhinovirus; conditions: H1-HeLa cells, XTT
Method: as §1, §2, §3, §9

[6] = biological target: T2, rhinovirus 3C protease, serotype 2 (Human rhinovirus 2, UniProt P04936); assay: Inhibition of rhinovirus 3C protease (FRET assay), serotype 2; format: biochemical; conditions: Rhinovirus Serotype (2) 3C protease; read-out: kobs/I
T2 construct: Recombinant rhinovirus 3C proteases; made in house
Method: as §8

[7] = Table 1, XTT dye reduction, read-out: Cell Protection EC50

T1 sequence (P03303 1538-1719): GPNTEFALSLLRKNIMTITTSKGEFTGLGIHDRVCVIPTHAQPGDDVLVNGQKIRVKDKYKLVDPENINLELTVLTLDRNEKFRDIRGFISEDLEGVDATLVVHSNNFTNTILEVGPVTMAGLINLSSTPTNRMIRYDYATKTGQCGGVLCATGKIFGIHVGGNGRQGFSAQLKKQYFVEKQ
T2 sequence (P04936 1508-1690): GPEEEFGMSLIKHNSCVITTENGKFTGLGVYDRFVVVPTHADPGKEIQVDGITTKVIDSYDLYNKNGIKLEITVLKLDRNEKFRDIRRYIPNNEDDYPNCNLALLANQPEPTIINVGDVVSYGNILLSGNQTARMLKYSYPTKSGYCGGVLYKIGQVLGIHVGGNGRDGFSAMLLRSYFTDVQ

SMILES | EC50 (HRV-14; Table 3, XTT, read-out: EC50) [nM] | kinact/KI [4] [M⁻¹ s⁻¹] | EC50 (HRV-14; [7]) [nM] | EC50 (HRV (1A)) [nM] | EC50 (HRV (10); Human rhinovirus sp., H1-HeLa) [nM] | CC50 at 2 days [5] [nM] | other results
Cc1cc(CCCOc2c(C)cc(-c3noc(C(F)(F)F)n3)cc2C)on1 [Pleconaril, reference compound] | 10 | – | – | – | – | – | EC50 [1]: 90 nM; EC50 [2]: > 10000 nM; EC50 [3]: 160 nM
CCOC(=O)/C=C/[C@H](CCC(N)=O)NC(=O)[C@H](Cc1ccc(C)cc1)NC(=O)[C@@H](NC(=O)C1SCCS1)C(C)(C)C [Compound A-15] | 220 | 237000 | 220 | 7100 | 2700 | > 100000 | –
CCOC(=O)/C=C/[C@H](CCC(N)=O)NC(=O)[C@@H](CC(=O)[C@@H](NC(=O)c1cc(C)on1)C(C)C)Cc1ccc(F)cc1 [Compound B-1, Ethyl-3-[(5′-Methylisoxazole-3′-carbonyl)-L-ValΨ(COCH2)-L-(4-F-Phe)-L-Gln}-E-Propenoate] | 100 | 240000 | 100 | 300 | 400 | – | –
CCOC(=O)/C=C/[C@H](C[C@@H]1CCNC1=O)NC(=O)[C@H](Cc1ccc(F)cc1)NC(=O)[C@@H](NC(=O)c1cc(C)on1)C(C)(C)C [Compound A-7, Ethyl-3-{(5′-Methylisoxazole-3′-carbonyl)-L-α-(t-Butyl-Gly)-L-(4-F-Phe)-L-((S)-Pyrrol-Ala)}-E-Provenoate] | – | 980000 | 4 | – | – | – | EC50 (HRV (2)): 20 nM; EC50 (HRV (89)): 20 nM; EC50 (HRV (39)): 20 nM; EC50 (HRV (10)): 60 nM; EC50 (HRV (3)): 20 nM; EC50 (HRV (9)): 40 nM; EC50 (HRV (13)): 30 nM; EC50 (HRV (17)): 20 nM
CCOC(=O)/C=C/[C@H](CCC(N)=O)NC(=O)[C@H](Cc1ccc(C)cc1)NC(=O)[C@@H](NC(=O)c1ccc[nH]1)C(C)(C)C [Compound A-16] | 450 | 173000 | 450 | 4800 | 4500 | > 100000 | –
CCOC(=O)/C=C/[C@H](CCC(N)=O)NC(=O)[C@H](Cc1ccccc1)NC(=O)[C@H](CC(C)C)NC(=O)[C@@H]1C=CCN1 [Compound A-19] | 25100 | 27800 | 25100 | – | – | > 100000 | –
CCOC(=O)/C=C/[C@H](C[C@@H]1CCNC1=O)NC(=O)[C@H](Cc1ccccc1)NC(=O)[C@H](CC(C)C)NC(=O)OCc1ccccc1 [Compound A-24, Ethyl-3-{Cbz-L-Leu-L-Phe-L-((S)-Pyrrol-Ala)}-E-Propenoate] | 100 | 257000 | 100 | – | – | – | kinact/KI [6]: 31000 M⁻¹ s⁻¹
CCOC(=O)/C=C/[C@H](CCC(N)=O)NC(=O)[C@H](Cc1ccc(F)cc1)NC(=O)[C@@H](NC(=O)C1SCCS1)C(C)(C)C [Compound A-17] | 60 | 167000 | 60 | 1800 | 3300 | > 100000 | –
CCOC(=O)/C=C/[C@H](CCC(N)=O)NC(=O)[C@H](Cc1ccccc1)NC(=O)[C@H](CC(C)C)NC(=O)c1cc(C)on1 [Compound A-1, Ethyl-3-((5′-Methylisoxazole-3′-carbonyl)-L-Leu-L-Phe-L-Gin)-E-Propenoate] | 250 | 260000 | 250 | 1000 | – | – | EC50 (HRV (2); Human rhinovirus sp., H1-HeLa): 410 nM; EC50 (HRV (89); Human rhinovirus sp.): 220 nM
CCOC(=O)/C=C/[C@H](CCC(N)=O)NC(=O)[C@H](Cc1ccccc1)NC(=O)[C@H](CC(C)C)NC(=O)c1ccno1 [Compound A-2, Ethyl-3-((Isoxazole-5′-carbonyl)-L-Leu-L-Phe-L-Gln)-E-Propenoate] | 1600 | 46900 | 1600 | – | – | – | melting point: 217 to 220 °C

Reference: patent US20060046966A1, “Antipicornaviral compounds and compositions, their pharmaceutical uses, and materials for their synthesis” (Agouron Pharmaceuticals, Inc., priority 1998, published 2006)
